Common to all, as to type: physicochemical
The nature of series [1]: Absorption spectrum and extinction coefficient in DMSO. An excerpt: With the various components in hand, we turned our attention to testing whether the amide moiety would impact the photophysical properties of the cyanine core. First, we analyzed the absorption spectrum and measured the extinction coefficient of Cy780-Acryl. Compared to the Cy7-Cl reference in DMSO, the λmax (831 nm cf. 793 nm) and extinction coefficients (1.11×10^5 M^−1cm^−1 cf. 1.23×10^5 M^−1cm^−1) were similar. Next, we evaluated the photostability of the crosslinker. When Cy780-Acryl (as well as Cy780-Acetamido) was irradiated with a LED light source at 780 nm (300 mW power output, 47.3 μW/mm^2 maximum irradiance), we found complete degradation of the molecule after only 25 minutes based on the disappearance of the NIR absorbance band (FIG. 2). […] Of note, when dissolved oxygen was removed prior to the initiation of photobleaching, we found the change in absorbance to be minimal, supporting the proposed dioxetane mechanism (FIG. 4). Indeed, the anticipated carbonyl fragmentation products were detected via LC-MS when samples were irradiated in the presence of oxygen (FIG. 5).
^1H and ^13C NMR spectra were acquired on a Varian 500 or Carver B500 spectrometer. […] Spectra were visualized and analyzed using MestReNova (version 14.2) and referenced to trace non-deuterated solvent. […]

Series [2] can be described thus: Photobleaching under 780 nm LED irradiation (NIR absorbance). The method, then: FIG. 2. […] Time points=0, 15, 30 mins. Samples were irradiated with a LED light source at 780 m, (300 mW power output, 47.3 μW/mm^2 maximum irradiance).
FIG. 3. Absorption measurements of a 25 μM solution of a) Cy7-Cl and b) Cy780-Acryl when irradiated with a 780 nm LED light. Time points=0, 15, 30 mins. Samples were irradiated with a LED light source at 780 m, (300 mW power output, 47.3 μW/mm^2 maximum irradiance).
FIG. 4. Absorption measurements of a NIR-nanogel sample without dissolved oxygen when irradiated with a 780 nm LED light. Time points=0, 15, 30, 45, 60, 75, 90 mins. Samples were irradiated with a LED light source at 780 m, (300 mW power output, 47.3 μW/mm^2 maximum irradiance).
Time points=0, 15, 30, 45, 60, 90, 120, 150, 180 mins. b) Diameter of NIR-nanogels with and without NIR light irradiation measured via dynamic light scattering (left) and scanning electron microscopy (right). […] (n=300 for SEM) Scale bar represents 500 nm. e) Normalized absorbance of nanogels exposed to biologically relevant reactive species. f) Normalized absorbance of nanogels suspended in Britton-Robinson buffer (pH 4.2 to 12.0). […]
With the various components in hand, we turned our attention to testing whether the amide moiety would impact the photophysical properties of the cyanine core. First, we analyzed the absorption spectrum and measured the extinction coefficient of Cy780-Acryl. […]

Series [3] in a line: Passive release of encapsulated cargo via dialysis. The conditions noted are these: drug-loaded NIR-nanogel, dialysis against MilliQ/DI water; for passive leeching of cargo (concentration loss): three hours. How it is done: FIG. 10A-D. Passive release of encapsulated a) cisplatin b) gefitinib c) GW9662 and d) Paclitaxel via dialysis for 0, 1, 2, and 4 hours against DI water.
After extensive screening, we obtained an optimized procedure that yielded reliable encapsulation results for each drug. We discovered that slow addition (versus bolus addition) of the drug to NIR-nanogel samples was essential to maintain a homogeneous suspension of the particles in solution. Further, the inclusion of at least 10% ethanol as a solubilizing co-solvent was necessary for drug encapsulation. […] After removal of non-encapsulated drug, we established a method to assess passive leeching of the contents by dialyzing the drug-loaded sample against MilliQ water. Small aliquots were removed at various time points and compared to the initial cargo concentration. […] In general, the extent of passive cargo loss was determined by placing a photobleached sample of each drug-loaded NIR-nanogel in 3 kDa MWCO dialysis tubing for dialysis against DI water. Aliquots were taken to determine the absorbance at various time points for comparison against the corresponding calibration curve.

In series [1], `C=CC(=O)Nc1ccc2c(c1)C(C)(C)C(/C=C/C1=C(Cl)C(=C/C=C3/N(CC)c4ccc(NC(=O)C=C)cc4C3(C)C)/CCC1)=[N+]2CC` [Cy780-Acryl] showed an extinction coefficient of 111000 M⁻¹ cm⁻¹ and a λmax of 831 nm. For the same molecule, the “change in absorbance on irradiation without dissolved oxygen” value in series [2] (780 nm LED, dissolved oxygen removed prior to photobleaching) was “minimal”. Also, the “time to complete degradation (disappearance of the NIR absorbance band)” value in series [2] (LED 780 nm, 300 mW power output, 47.3 μW/mm^2 maximum irradiance) amounted to 25 min. `O=C(Nc1ccccc1)c1cc([N+](=O)[O-])ccc1Cl` [GW9662]: the “passive release of cargo (result in words)” value in series [3] was “no passive release”. Take `N.N.[Cl][Pt][Cl]` [cisplatin]: the “passive leeching of cargo (concentration loss)” value in series [3] was ~ 50%. Regarding `COc1cc2ncnc(Nc3ccc(F)c(Cl)c3)c2cc1OCCCN1CCOCC1` [gefitinib], the “passive leeching of cargo (concentration loss)” value in series [3] is ~ 6%. In the case of `CC(=O)O[C@H]1C(=O)[C@@]2(C)[C@H]([C@H](OC(=O)c3ccccc3)[C@]3(O)C[C@H](OC(=O)[C@H](O)[C@@H](NC(=O)c4ccccc4)c4ccccc4)C(C)=C1C3(C)C)[C@]1(OC(C)=O)CO[C@@H]1C[C@@H]2O` [paclitaxel], the “passive release of cargo (result in words)” value in series [3] is listed as “minimal leeching”.

Source of the values: patent publication US20260345834A1, “NIR-LIGHT ACTIVATABLE NANOGEL DELIVERY SYSTEM” (THE BOARD OF TRUSTEES OF THE UNIVERSITY OF ILLINOIS, priority 2022, published 2026).
